Reference: ChEMBL document CHEMBL1130831, “Relationship between dihedral angles of N1 and C9 substituents in 1,4-benzodiazepines and dual cholecystokinin-A and -B antagonistic activities” (Bioorg Med Chem Lett, 1998)

Experiments:
[1] = biological target: T1, Cholecystokinin receptor type A (Rattus norvegicus, UniProt P30551); experiment: Compound was evaluated for the inhibition of […] I-CCK-8 binding at Cholecystokinin type A receptor in rat pancreatic membranes; type: cell membranes, Membrane
T1 sequence (P30551 whole entry): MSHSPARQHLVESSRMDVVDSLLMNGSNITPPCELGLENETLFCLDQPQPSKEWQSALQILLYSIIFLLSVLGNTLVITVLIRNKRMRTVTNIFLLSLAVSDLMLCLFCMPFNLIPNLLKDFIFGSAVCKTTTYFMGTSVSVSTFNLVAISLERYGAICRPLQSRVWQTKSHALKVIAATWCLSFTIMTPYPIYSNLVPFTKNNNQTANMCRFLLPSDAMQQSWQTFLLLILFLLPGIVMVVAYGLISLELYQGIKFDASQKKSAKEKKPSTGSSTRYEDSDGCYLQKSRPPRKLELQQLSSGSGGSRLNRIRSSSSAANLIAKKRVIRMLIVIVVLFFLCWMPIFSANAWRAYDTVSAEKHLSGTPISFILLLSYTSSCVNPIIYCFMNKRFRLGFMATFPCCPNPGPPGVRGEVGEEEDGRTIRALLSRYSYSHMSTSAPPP

[2] = biological target: Cholecystokinin receptor (Homo sapiens) (UniProt P32239+P32238); experiment: Ratio of inhibitory activity of CCK-A to CCK-B was reported.; type: protein assay
Sequence of Cholecystokinin receptor (Homo sapiens) (P32238 whole entry, looked up): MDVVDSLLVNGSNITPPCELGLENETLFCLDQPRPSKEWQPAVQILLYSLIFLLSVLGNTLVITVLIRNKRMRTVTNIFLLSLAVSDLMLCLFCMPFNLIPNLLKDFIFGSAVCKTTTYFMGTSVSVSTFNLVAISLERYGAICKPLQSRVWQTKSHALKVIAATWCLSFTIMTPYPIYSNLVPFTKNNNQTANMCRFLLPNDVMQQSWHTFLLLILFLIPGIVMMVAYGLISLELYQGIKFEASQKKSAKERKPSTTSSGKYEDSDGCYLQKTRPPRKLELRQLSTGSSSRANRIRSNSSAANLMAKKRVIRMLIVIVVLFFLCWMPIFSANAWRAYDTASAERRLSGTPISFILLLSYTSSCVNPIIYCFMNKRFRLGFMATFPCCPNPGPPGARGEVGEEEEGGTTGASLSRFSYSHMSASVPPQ
Sequence of Cholecystokinin receptor (Homo sapiens) (P32239 whole entry, looked up): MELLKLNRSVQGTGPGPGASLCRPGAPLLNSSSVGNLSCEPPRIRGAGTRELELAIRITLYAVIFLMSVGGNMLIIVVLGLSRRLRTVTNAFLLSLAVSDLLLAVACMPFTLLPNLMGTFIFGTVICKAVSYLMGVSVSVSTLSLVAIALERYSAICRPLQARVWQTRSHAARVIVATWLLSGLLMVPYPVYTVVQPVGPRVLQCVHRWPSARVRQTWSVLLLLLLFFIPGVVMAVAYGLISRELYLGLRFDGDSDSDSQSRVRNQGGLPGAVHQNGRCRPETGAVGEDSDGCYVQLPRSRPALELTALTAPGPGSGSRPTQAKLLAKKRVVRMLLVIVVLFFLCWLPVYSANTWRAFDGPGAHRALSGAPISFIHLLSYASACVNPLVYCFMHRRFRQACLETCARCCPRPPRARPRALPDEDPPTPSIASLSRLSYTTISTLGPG

[3] = Compound was evaluated for the inhibition of […] I-CCK-8 binding at Cholecystokinin type B receptor on guinea pig cerebral cortical membranes
[4] = biological target: T2, Cholecystokinin receptor type A (Rattus norvegicus) (UniProt P30551); experiment: Compound was evaluated for the inhibition of […] I-CCK-8 binding at Cholecystokinin type A receptor in rat pancreatic membranes at 10 e -8 M; type: cell membranes; details: Membrane
T2 sequence (whole entry): T1 sequence (P30551 whole entry)

Compound	IC50 [1] [nM]	Ratio [2]	other results
CCc1cccc2c1N(CC(=O)N1CC3CCC(CC3)C1)C(=O)C(NC(=O)Nc1cccc(-c3nnn[nH]3)c1)N=C2c1ccccc1F (centres undefined)	18		
Cc1cccc2c1N(CC(=O)N1CC3CCC(CC3)C1)C(=O)C(NC(=O)Nc1cccc(-c3nn[nH]n3)c1)N=C2c1ccccc1F (centres undefined)		21	IC50 [3]: 0.68 nM
O=C(Nc1cccc(-c2nn[nH]n2)c1)NC1N=C(c2ccccc2F)c2ccccc2N(CC(=O)N2CC3CCC(CC3)C2)C1=O (centres undefined)		710	
CCc1cccc2c1N(CC(=O)N1CC3CCC(CC3)C1)C(=O)C(NC(=O)Nc1cccc(-c3nn[nH]n3)c1)N=C2c1ccccc1F (centres undefined)		22	
O=C(Nc1cccc(-c2nnn[nH]2)c1)NC1N=C(c2ccccc2F)c2cccc(Cl)c2N(CC(=O)N2CC3CCC(CC3)C2)C1=O (centres undefined)	13		
O=C(Nc1cccc(-c2nn[nH]n2)c1)NC1N=C(c2ccccc2F)c2cccc(Cl)c2N(CC(=O)N2CC3CCC(CC3)C2)C1=O (centres undefined)		20	
CC(C)c1cccc2c1N(CC(=O)N1CC3CCC(CC3)C1)C(=O)C(NC(=O)Nc1cccc(-c3nn[nH]n3)c1)N=C2c1ccccc1F (centres undefined)			inhibition [4]: 12.2%
O=C(Nc1cccc(-c2nnn[nH]2)c1)NC1N=C(c2ccccc2F)c2ccccc2N(CC(=O)N2CC3CCC(CC3)C2)C1=O (centres undefined)	62		
